Measured values: US20100145057A1, “NOVEL PRODRUGS” (SUN PHARMA ADVANCED RESEARCH COMPANY LTD., priority 2007, published 2010)
Like-named read-outs stand apart in the source and are kept apart here.

Columns and labels:
[1] = Comparative bioavailability: baclofen plasma levels after oral baclofen or example 15; format: in vivo; details: 20 ug/kg, baclofen dosed 20 mcg/kg p.o.
Procedure: (§1) The prodrugs compounds of the present invention, i.e. the compounds of formula-I release in-vivo the compounds of formula III. Two of the representative compounds of the present invention i.e. compound of example 5 and compound 15, were tested to determine the comparative bioavailability of the drug and the prodrug. The following method was employed for the determination of bioavailability of the test compound of example 5.
(§2) Table 1 and Table 2 below provide Dose-concentration data for the representative compounds 5 and compound 15 of the invention, which are prodrugs of gabapentin and baclofen respectively.

[2] = Comparative bioavailability: LC-MS determination of gabapentin in plasma after oral gabapentin or example 5; format: in vivo; details: for dose dependence of bioavailability / absorption (in words): data of Table 1, 50 and 100 mg/kg p.o.; for AUC(0-t): po, t = 24 hrs, plasma
Procedure: as §1
Liquid Chromatography Mass Spectrometric Method for the Determination of Gabapentin from Example 5 in Plasma.
Mobile phase: Prepare 2 mM ammonium acetate solution in milliQ water and adjust the pH to 3.0 with formic acid. Mix above buffer solution and acetonitrile in the ratio (30:70 v/v) and filter.
Column: Hypurity C18, 50×2.1 mm, 5μ; Column oven temperature: 40° C.; Flow rate: 0.25 ml/min; Injection volume: 10 μl; Run time: 2.0 min.; Retention time: Example 5: 1.0 min.; Gabapentin: 1.0 min.; Carbamazepine: 1.0 min.;
Mass Parameters: Spray Voltage: 3500 V; Sheath Gas Pressure: 35 ml/min; Capillary Temperature: 380° C.; Mode: Positive; Aux gas pressure: 10 ml/min
For Gabapentin Linearity Range: 200 ng-19600 ng/ml in mobile phase.
For example 5: Linearity Range: 50 ng 5000 ng/ml in mobile phase.
A 100 μl plasma sample and 5 μl of internal standard was taken in a micro centrifuge tube. Vortex for 20-30 sec. The test samples were loaded in preconditioned HLB cartridges. The cartridge was washed with 1 ml Milli-Q water the sample was eluted with 500 μl of mobile phase. The sample was centrifuged at 15000 rpm for 5 minutes and the supernatant was collected for analysis.
as §2

[3] = cited from earlier work
[4] = tested on: mouse; details: cited from earlier work
[5] = oral; cited from earlier work

`NCC(CC(=O)O)c1ccc(Cl)cc1` (centres unmarked) [Baclofen] showed a Cmax [1] of 3600 ng/mL and an AUC(0-t) ([1]; t = 24 hrs) of 15000 ng·h/mL.
In the case of `CCOC(=O)C(C)=NOC(=O)NCC1(CC(=O)O)CCCCC1` [Example 5, N-[(Ethyl oximinopropionate-2-yl)carbonyl]-1-aminomethyl cyclohexaneacetic acid], the “dose dependence of bioavailability / absorption (in words)” value [2] is reported as “dose-proportional bioavailability”.
In the case of `NCC1(CC(=O)O)CCCCC1` [Gabapentin, 1-(aminomethyl)cyclohexaneacetic acid], the oral bioavailability ([3]; 900 mg/day oral) is listed as “approximately 60%”, the oral bioavailability ([3]; 1800 mg/day oral) is listed as about 27% and the “dose dependence of bioavailability / absorption (in words)” value [2] is listed as “non-linear saturable absorption, with lower bioavailability at the higher dose”. For the same molecule, the AUC(0-t) ([2]; gabapentin dosed 50 mg/kg p.o.) was 85000 ng·h/mL, the AUC(0-t) ([2]; gabapentin dosed 100 mg/kg p.o.) was 99000 ng·h/mL and the LD50 [4] was over 8000 mg/kg.
In the case of `NC[C@H]1CC[C@H](C(=O)O)CC1` [Tranexamic acid, trans-4-(aminomethyl)cyclohexanecarboxylic acid], the “orally administered dose absorbed” value [5] is given as 35-40%.
For `O=C1CC2(CCCCC2)CN1` [corresponding lactam], the LD50 [4] is given as 300 mg/kg.
